# Source: patent US11484601B2, “Targeting M2-like tumor-associated macrophages by using melittin-based proapoptotic peptide” (TWI[…]., priority 2018, dated 2022)
# What was measured:
# Assay type in all cases: in vivo, mouse
# MMP-9 = experiment: Quantitative real-time PCR of lung tissue, MMP-9
# Protocol: (§1) To measure the ability of MEL-dKLA to inhibit tumor metastasis, expression levels of CD44 known to interact with extracellular matrix ligand to promote metastasis and invasion and thus to be widely expressed in cancer, CCL22 known as M2-type macrophage marker, HIF-1α known as a marker of angiogenesis, metastasis and invasion, Ym1 as a marker of M2-type macrophage, and MMP-9 involved in the migration and settlement of tumor cells were measured via quantitative real-time PCR.
# (§2) More specifically, RNA was extracted from lung tissue using an easy-BLUE RNA extraction kit (iNtRON Biotechnology, Korea). Then, cDNA was synthesized according to the manual for cyclescript reverse transcriptase (Bioneer, Korea). cDNA synthesis conditions were as follows: 15 seconds at 95, 10 seconds at 55, and 10 seconds at 72. Each reaction was conducted 3 times. […] Quantitative real-time PCR was performed using the SensiFAST SYBR no-Rox kit (Bioline, Korea).
# 4T1 breast cancer cells = experiment: 4T1 breast cancer model in BALB/c mice, lung nodules and H&E; details: 175 nmol/kg at 3-day intervals; for nodules on the lung surface: 15 days after cancer cell injection
# Protocol: More specifically, 4T1 breast cancer cells (1×10^5) were injected into BALB/c mice. Then, 3 days later, 175 nmol/kg of each of PBS, dKLA, MEL and MEL-dKLA was injected into each group at 3-day intervals. To investigate the level of metastasis and nodules on the lung surface, on 15 days after cancer cell injection, mice were sacrificed and the nodules on the lung surface were identified.
# More specifically, for H&E staining, we immersed the tissue in a hematoxylin solution, stained the cell nucleus with a purple color. Then, we removed a remaining-stained portion except for the nucleus with an acidic alcohol solution, and immersed the tissue again in an eosin-added solution to stain the cytoplasm with a pink color. Then, the structure of the cell was observed.
# HIF-1α = experiment: Quantitative real-time PCR of lung tissue, HIF-1α; details: vs PBS-treated group
# Protocol: as §1, §2
# CCL22 = experiment: Quantitative real-time PCR of lung tissue, CCL22; details: vs PBS-treated group
# Protocol: as §1, §2
# [1] = system: M2-type tumor-associated macrophage (CD45+F4/80+CD206+); experiment: Flow cytometry of tumor tissue, M2-type TAM
# Protocol: More specifically, the tumor cells were thinly crushed and separated from each other in DMEM to which DNasel (1 U/mL) and collagenase D (1 mg/mL) were added. The tissue was gently agitated for 1 hour at 37° C., and separated using a […] nylon mesh filter. Red blood cells were dissolved in Phrmlyse buffer (BE bioscience). Individual cells passed through a 40-μm nylon mesh filter and then were stained with following antibodies: CD4+ T cell (CD45+CD4+CD8−), CD8+ T cell (CD45+CD4−CD8+), Foxp3+ regulatory T cell (CD4+CD25+Foxp3+), dendritic cell (CD45+CD11b+CD11c+), and M1 (CD45+F4/80+CD86+) or M2 macrophage (CD45+F4/80+CD206+): anti-CD45-FITC, anti-CD4-phycoerythrin (PE), anti-CD8-allophycocyanin (APC), anti-CD4-FITC, anti-CD25-PE, anti-Foxp3-Alexa Fluor647, anti-CD11b-APC, anti-CD11c-APCcy7, anti-Grl-PEcy7, anti-CD86-PEcy7, and anti-CD206-APC antibodies. Annexin-V was previously treated to measure the cell percentage of macrophages.
# [2] = system: 4T1-luciferase breast cancer cells; experiment: 4T1-luciferase breast cancer in mammary gland of NOD-SCID mice; details: 175 nmol/kg once every 3 days; for luminescence level at the metastasis site / metastasis area (lymph nodes of the armpit and lungs): 4 weeks; for growth of breast cancer cells in mammary gland: NOD-SCID mice
# Protocol: More specifically, to identify the effect of MEL-dKLA on tumor growth and metastasis when breast cancer cells were […] into the breast, 4T1-luciferase breast cancer cells (1×10^5) were injected into NOD-SCID mice as immunodeficient mice. From the time point when the tumor mass began to grow in the mammary gland No. 4 on 5 days after the injection, 175 nmol/kg of each of PBS, dKLA, MEL and MEL-dKLA was injected into each group once every 3 days. To measure the growth of the tumor, the size of the tumor was measured once every 3 days using a caliper device, and all tumor tissues were collected 4 weeks after the injection. On 4 weeks after the tumor transplantation, in order to identify metastasis of the tumor to the lymph nodes and lungs, D-luciferin as a substrate of luciferase enzyme was diluted to a concentration of 40 mg/ml and then, 100 μl thereof was administered to mice in an intraperitoneal administration mode. After reacting for about 15 minutes, luminescence was measured using NightOwl (Berthold Technologies) as an in vivo imaging device. Then, we analyzed the luminescence with pictures of mice to identify the level of metastasis to the whole body and lungs. The animal experiment was approved by the Animal Management Committee of Kyunghee University [KHUASP(SE)-18-133], and the animals were managed via autonomous feeding of water and food under a 12-hour light/dark cycle environment without pathogens.
# Ym1 = experiment: Quantitative real-time PCR of lung tissue, Ym1; details: vs PBS-treated group
# Protocol: as §1, §2
Compound,expression of MMP-9 (MMP-9),metastasis to the lung by H&E staining (4T1 breast cancer cells),nodules on the lung surface (4T1 breast cancer cells),number of nodules (4T1 breast cancer cells; lungs),expression of HIF-1α (HIF-1α),expression of CCL22 (CCL22),M2-type TAM cells compared to the PBS-treated group [1],proportion of M2-type tumor-associated F4/80+ CD206+ TAM in CD45+ leukocytes [1],luminescence level at the metastasis site [2],metastasis area (lymph nodes of the armpit and lungs) [2],growth of breast cancer cells in mammary gland [2],expression of Ym1 (Ym1)
CC[C@H](C)[C@H](NC(=O)CN)C(=O)NCC(=O)N[C@@H](C)C(=O)N[C@H](C(=O)N[C@@H](CC(C)C)C(=O)N[C@@H](CCCCN)C(=O)N[C@H](C(=O)N[C@@H](CC(C)C)C(=O)N[C@H](C(=O)N[C@H](C(=O)NCC(=O)N[C@@H](CC(C)C)C(=O)N1CCC[C@H]1C(=O)N[C@@H](C)C(=O)N[C@@H](CC(C)C)C(=O)N[C@H](C(=O)N[C@@H](CO)C(=O)N[C@@H](Cc1c[nH]c2ccccc12)C(=O)N[C@H](C(=O)N[C@@H](CCCCN)C(=O)N[C@@H](CCCNC(=N)N)C(=O)N[C@@H](CCCCN)C(=O)N[C@@H](CCCNC(=N)N)C(=O)N[C@@H](CCC(N)=O)C(=O)N[C@@H](CCC(N)=O)C(N)=O)[C@@H](C)CC)[C@@H](C)CC)[C@@H](C)O)[C@@H](C)O)C(C)C)C(C)C [MEL],lower compared to that in the PBS-treated group,relatively smaller metastasis occurred,no reduction thereof was observed,no significant decrease,not significantly different,not significantly different,decreased by half,about 10%,exhibited a tendency to decrease but did not exhibit significance,no significant difference from the PBS-treated group,did not occur significantly,no significant difference
"d[KLAKLAKKLAKLAK] (D-amino acids) [dKLA, pro-apoptotic peptide KLA, used as control]",high,tumor cells were widely spread and metastasis occurred,no reduction thereof was observed,,not significantly different,not significantly different,,about 20%,exhibited a tendency to decrease but did not exhibit significance,no significant difference from the PBS-treated group,did not occur significantly,increased significantly
